Test results taken from PubChem BioAssay (NCI).
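Exposure lasted 48 hours, with cells grown in 96-well plates and compounds tested at five concentrations. Here, GI50 denotes the concentration required for 50% inhibition of growth. The concentration for full growth arrest is given as TGI.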

Key:
Experiment in all cases: NCI anticancer screen, dose series, 48 h
A498 renal = tested on: A498 renal
HCT-116 colon = tested on: HCT-116 colon
IGROV1 ovarian = tested on: IGROV1 ovarian
MDA-MB-231 breast = tested on: MDA-MB-231 breast
MDA-MB-435 = tested on: MDA-MB-435
NCI-H226 lung = tested on: NCI-H226 lung
OVCAR-4 ovarian = tested on: OVCAR-4 ovarian
RXF 393 renal = tested on: RXF 393 renal
SF-539 CNS = tested on: SF-539 CNS
SK-OV-3 ovarian = tested on: SK-OV-3 ovarian

Row | Compound | TGI (A498 renal) | TGI (HCT-116 colon) | TGI (IGROV1 ovarian) | TGI (MDA-MB-231 breast) | TGI (MDA-MB-435) | TGI (NCI-H226 lung) | TGI (OVCAR-4 ovarian) | TGI (RXF 393 renal) | TGI (SF-539 CNS) | TGI (SK-OV-3 ovarian) | GI50 (A498 renal) | GI50 (HCT-116 colon) | GI50 (IGROV1 ovarian) | GI50 (MDA-MB-231 breast) | GI50 (MDA-MB-435) | GI50 (NCI-H226 lung) | GI50 (RXF 393 renal) | GI50 (SF-539 CNS)
1 | O[C@H]1[C@H](O)[C@@H](O)[C@@]2(O)C[C@@H](O)[C@@H]1N2 | > 100 µM | > 100 µM | > 100 µM | > 100 µM | > 100 µM | > 100 µM | > 100 µM | > 100 µM | > 100 µM | > 100 µM | – | – | – | – | – | – | – | –
2 | COc1ccc(N=C2C(=Nc3ccc(OC)cc3)N(c3ccccc3)C(=S)N2N=C=C2Sc3ccccc3N2C)cc1 | – | > 100 µM | > 100 µM | > 100 µM | > 100 µM | > 100 µM | – | > 100 µM | > 100 µM | > 100 µM | – | – | – | – | – | – | – | –
3 | Brc1c(C#CCC2CCCCC2)ccc(C#CCC2CCCCC2)c1Br | > 100 µM | – | > 100 µM | > 100 µM | > 100 µM | > 100 µM | > 100 µM | > 100 µM | > 100 µM | – | – | – | – | – | – | – | – | –
4 | O=C(/C=C/c1csc(-c2ccccc2)n1)NCc1ccc(C(=O)NCc2ccccc2)cc1 | > 100 µM | > 100 µM | > 100 µM | 53.5 µM | > 100 µM | > 100 µM | > 100 µM | > 100 µM | > 100 µM | > 100 µM | – | – | – | – | – | – | – | –
5 | C#CCOCC12C=CC(O1)C1C(=O)OCC12 (stereo unspecified) | > 100 µM | > 100 µM | > 100 µM | > 100 µM | > 100 µM | > 100 µM | > 100 µM | > 100 µM | > 100 µM | > 100 µM | – | – | – | – | – | – | – | –
6 | CCOC(=O)CSc1nnc(C(Sc2nc(-c3ccccc3)c(-c3ccccc3)[nH]2)C(C)C)n1-c1ccccc1 (stereo unspecified) | > 10 µM | > 31.6 µM | > 10 µM | 64.1 µM | – | 26 µM | 28.5 µM | 67.1 µM | 18.8 µM | > 10 µM | – | – | – | – | – | – | – | –
7 | CCCc1ccc(NCc2cc(OC)c(OC)c(OC)c2)cc1 | 98.6 µM | 48.3 µM | > 100 µM | – | – | – | > 100 µM | 61.7 µM | 63.3 µM | 66.3 µM | – | – | – | – | – | – | – | –
8 | CC1OC(OC2C(OC(=O)[C@@H]3CC(C)(C)C[C@H]4C5=CC[C@@H]6[C@@]7(C)C[C@H](O)[C@H](OC8OC(CO)C(O)C(O)C8O)[C@@](C)(CO)[C@@H]7[C@H](O)C[C@@]6(C)[C@]5(C)CC[C@@]34C)OCC(O)C2O)C(O)C(O)C1O (stereo partly specified) | – | > 7.5 µM | > 7.5 µM | > 7.5 µM | > 7.5 µM | > 7.5 µM | > 7.5 µM | > 7.5 µM | > 7.5 µM | > 7.5 µM | – | – | – | – | – | – | – | –
9 | Cc1ccc2nc(NC(=O)/C(Cc3nc4ccc(Cl)cc4[nH]c3=O)=N\NC(C)(C)C)sc2c1 | > 100 µM | > 100 µM | – | > 100 µM | > 100 µM | 91.3 µM | > 100 µM | > 100 µM | > 100 µM | > 100 µM | – | – | – | – | – | – | – | –
10 | CC(C)C1=CC23CCC4C(C)(C(=O)O)CCCC4(C)C2CC1C1C(=O)N(c2ccc(C(=O)O)cc2)C(=O)C13 (stereo unspecified) | – | > 100 µM | > 100 µM | > 100 µM | > 100 µM | > 100 µM | > 100 µM | > 100 µM | > 100 µM | > 100 µM | – | – | – | – | – | – | – | –
11 | CCC1(COC(NC(=O)c2ccccc2)(C(F)(F)F)C(F)(F)F)COC1 | > 100 µM | > 100 µM | > 100 µM | – | > 100 µM | – | – | > 100 µM | > 100 µM | > 100 µM | – | – | – | – | – | – | – | –
12 | CCOc1ccc(-n2nnc3c(N)nc(N)nc32)cc1 | > 100 µM | > 100 µM | > 100 µM | > 100 µM | > 100 µM | > 100 µM | > 100 µM | – | > 100 µM | > 100 µM | – | – | – | – | – | – | – | –
13 | O=C(CC(=O)Nc1ccccc1)N/N=C/c1cc(N=Nc2ccc(Br)cc2)ccc1O | – | – | > 10 µM | > 10 µM | – | – | > 10 µM | – | > 10 µM | > 10 µM | – | – | – | – | – | – | – | –
14 | COc1cc([C@@H]2c3cc(O)c(OC)cc3C=C(C(N)=O)[C@H]2C(N)=O)ccc1O | > 100 µM | > 100 µM | > 100 µM | > 100 µM | > 100 µM | > 100 µM | – | > 100 µM | > 100 µM | – | – | – | – | – | – | – | – | –
15 | Fc1ccccc1C1SCc2nc3cc4ccccc4cc3n21 (stereo unspecified) | – | > 100 µM | > 100 µM | > 100 µM | > 100 µM | > 100 µM | > 100 µM | 80.1 µM | – | > 100 µM | – | – | – | – | – | – | – | –
16 | CC(NC(C)(C)C)C(=O)c1cccc(Cl)c1 (stereo unspecified) | > 100 µM | > 100 µM | > 100 µM | – | – | – | > 100 µM | > 100 µM | > 100 µM | > 100 µM | – | – | – | – | – | – | – | –
17 | CC1OC(O[C@H]2/C=C/C=C/C=C/C=C/C=C/C=C/C=C/[C@H](C)[C@@H](O)[C@@H](C)[C@H](C)OC(=O)CC(O)CC(O)CCC(O)C(O)CC(O)C[C@]3(O)C[C@H](O)C(C(=O)O)C(C2)O3)C(O)[C@H](N)C1O (stereo partly specified) | 25.9 µM | 4.05 µM | 4.73 µM | 15.7 µM | 3.69 µM | 4.31 µM | – | 3.95 µM | 11.6 µM | – | 12 µM | 1.99 µM | 2.31 µM | 4.24 µM | 2.01 µM | 2 µM | 1.84 µM | 2.92 µM
18 | CCN(c1cccc(NC(=S)Nc2ccccc2N(CC)c2cc(-c3ccccc3)no2)c1)c1cc(-c2ccccc2)no1 | – | > 100 µM | > 100 µM | > 100 µM | > 100 µM | > 100 µM | > 100 µM | > 100 µM | > 100 µM | > 100 µM | – | – | – | – | – | – | – | –
19 | COC12c3ccccc3-c3ccccc3C1[C@H]1C(=O)OC(=O)[C@H]12 (stereo partly specified) | > 10 µM | – | > 10 µM | > 10 µM | > 10 µM | > 10 µM | > 10 µM | > 10 µM | > 10 µM | > 10 µM | – | – | – | – | – | – | – | –
20 | COc1ccc(-n2cnc3c(NC(CCSC)C(=O)O)ncnc32)cc1 (stereo unspecified) | > 100 µM | > 100 µM | > 100 µM | > 100 µM | > 100 µM | > 100 µM | > 100 µM | – | – | > 100 µM | – | – | – | – | – | – | – | –
21 | Cc1ccc(N=Nc2c(O)c(C(=O)Nc3ccccc3)cc3ccccc23)c([N+](=O)[O-])c1 | > 100 µM | > 100 µM | > 100 µM | > 100 µM | > 100 µM | – | > 100 µM | > 100 µM | – | > 100 µM | – | – | – | – | – | – | – | –
22 | COC(=O)c1cnn2c1n[n+]([O-])c1ccccc12 | > 100 µM | > 100 µM | > 100 µM | > 100 µM | > 100 µM | > 100 µM | – | > 100 µM | – | > 100 µM | – | – | – | – | – | – | – | –
